Measurements reported in ChEMBL document CHEMBL1140505, “D-phenylglycinol-derived non-covalent factor Xa inhibitors: effect of non-peptidic S4 linkage elements on affinity and anticoagulant activity” (2007).

Key:
[1] = target: Coagulation factor X (Homo sapiens) (UniProt P00742); test: Binding affinity to F10a
[2] = test system: Plasma; test: Anticoagulant activity in human plasma assessed as concentration causing 1.5 times prolongation of prothrombin time; assay type: functional
[3] = test system: Plasma; test: Anticoagulant activity in rat plasma assessed as concentration causing 1.5 times prolongation of prothrombin time; assay type: functional
[4] = test system: Plasma; test: Anticoagulant activity in dog plasma assessed as concentration causing 1.5 times prolongation of prothrombin time; assay type: functional, Canis lupus familiaris
[5] = test system: Plasma; test: Anticoagulant activity in monkey plasma assessed as concentration causing 1.5 times prolongation of prothrombin time; assay type: functional, Macaca mulatta

Coagulation factor X (Homo sapiens), sequence (P00742 41-179 limits assumed): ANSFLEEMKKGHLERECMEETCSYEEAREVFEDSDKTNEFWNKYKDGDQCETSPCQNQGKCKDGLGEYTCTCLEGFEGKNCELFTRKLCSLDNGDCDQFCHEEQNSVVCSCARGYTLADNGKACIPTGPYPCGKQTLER
Coagulation factor X (Homo sapiens), sequence (P00742 235-488 limits assumed): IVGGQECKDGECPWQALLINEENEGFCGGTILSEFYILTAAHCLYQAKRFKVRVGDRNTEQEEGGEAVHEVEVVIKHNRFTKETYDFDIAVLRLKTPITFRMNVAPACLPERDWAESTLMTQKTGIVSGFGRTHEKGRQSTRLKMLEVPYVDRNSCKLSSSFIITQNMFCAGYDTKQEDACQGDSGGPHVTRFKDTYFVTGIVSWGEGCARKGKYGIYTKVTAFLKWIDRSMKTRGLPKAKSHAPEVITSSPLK

Kapp [1]	SMILES	other results
160 10^6L/mol	Cc1c[nH]c2cc(C(=O)N[C@@H](COCC3CCN(C(C)C)CC3)c3ccccc3)ccc12	
41 10^6L/mol	CCCC[C@H](COCC1CCN(C(C)C)CC1)NC(=O)c1ccc2c(Cl)c[nH]c2c1	
150 10^6L/mol	CCN1CCC(COCC(NC(=O)c2ccc3c(Cl)c[nH]c3c2)c2ccccc2Cl)CC1 (stereo not drawn)	
700 10^6L/mol	CC(C)N1CCC(CCCC(NC(=O)c2ccc3c(Cl)c[nH]c3c2)c2ccccc2)CC1 (stereo not drawn)	
35 10^6L/mol	CC(C)N1CCC(COC[C@H](NC(=O)c2ccc3cc[nH]c3c2)c2ccccc2)CC1	
14 10^6L/mol	CC(C)[C@H](COCC1CCN(C(C)C)CC1)NC(=O)c1ccc2c(Cl)c[nH]c2c1	
650 10^6L/mol	CC(C)N1CCC(COCC(NC(=O)c2ccc3c(Cl)c[nH]c3c2)c2ccccc2F)CC1 (stereo not drawn)	
850 10^6L/mol	CC(C)N1CCC(COCC(NC(=O)c2ccc3c(Cl)c[nH]c3c2)c2ccccc2Cl)CC1 (stereo not drawn)	
1300 10^6L/mol	O=C(NC(COCC1CCN(c2ccncc2)CC1)c1ccccc1Cl)c1ccc2c(Cl)c[nH]c2c1 (stereo not drawn)	

The next lines start with the molecule.

SMILES	Kapp [1]	other results
COc1ccc(C(=O)N[C@@H](COCC2CCN(C(C)C)CC2)c2ccccc2)cc1	3 10^6L/mol	
CC(C)N1CCC(CNC[C@H](NC(=O)c2ccc3c(Cl)c[nH]c3c2)c2ccccc2)CC1	1200 10^6L/mol	
CC(C)N1CCC(COC[C@H](NC(=O)c2ccc3c(Cl)c[nH]c3c2)c2ccccc2)CC1	1700 10^6L/mol	Activity [2]: 0.4 µM; Activity [3]: 0.6 µM; Activity [4]: 0.8 µM; Activity [5]: 0.4 µM
CC(C)N1CCC(CNC(=O)[C@H](NC(=O)c2ccc3c(Cl)c[nH]c3c2)c2ccccc2)CC1	460 10^6L/mol	Activity [2]: 0.5 µM; Activity [3]: 2.6 µM; Activity [4]: 3.2 µM; Activity [5]: 0.6 µM
CN1CCC(COCC(NC(=O)c2ccc3c(Cl)c[nH]c3c2)c2ccccc2Cl)CC1 (stereo not drawn)	65 10^6L/mol	
CC(C)N1CCC(CN(C)C[C@H](NC(=O)c2ccc3c(Cl)c[nH]c3c2)c2ccccc2)CC1	60 10^6L/mol	
